Test results from US20220273659A1, “HETEROCYCLIC COMPOUNDS AS KINASE INHIBITORS” (NUVATION BIO INC., priority 2019, published 2022).

Assays:
CDK4 = target: T1, CDK4 (Homo sapiens, UniProt P11802); assay: In vitro kinase inhibition IC50, luminescence (ADP Glo), retinoblastoma substrate; format: biochemical; details: read-out: CDK4/D1 IC50
T1 construct: purchased Invitrogen PR8064A
Method: (§1) IC50 values of compounds against CDK4 and CDK6 were determined by luminescence using retinoblastoma as substrate. Kinase assays were performed in kinase buffer (#PV6135, Invitrogen Life Technologies, Grand Island, N.Y.) where total reaction volume was […] in 96-well half area white plates (#3693, Costar). One microliter of 25×test compounds at specific concentrations (e.g., final concentration range: 0.1 nM-200 nM) was mixed with 10 μL of 2.5×kinase (5 nM, CDK4 #PR8064A and CDK6 #PR8422B, Invitrogen) solution and 14 μL of 4× mixed solution with retinoblastoma (1 μM, #12-439, EMD Millipore, Hayward, Calif.) and ATP (25 μM, #V7038, Promega, Madison, Wis.). The plates were covered and incubated for 2H at room temperature. At the end of incubation, 25 μL of stop solution—ADP Glo reagent (#V7002, Promega) was added. After incubation for 45 min at room temperature, 50 μL of detection reagent (##V7002, Promega) was added. Readings were taken at 15 min and 45 min incubation after detection reagent was added in a Synergy Neo Plate reader (BioTek, Winooski, Vt.) at single excitation of 340 nm and Dual emission at 495 nm and 520 nm respectively. The following equations were used in the CDK4 and CDK6 assay data analysis. Percent inhibition (100-% activity) was fitted to the “four-parameter logistic model” in XLfit for determination of IC50 values.
(§2) Percent conversion of enzyme=100−{(RLUNo Drug−No enzyme*100)/RLUNo drug+Enzyme} Equation 1:
(§3) Percent conversion at each data point=100−{(RLUAverage(Drug+enzyme)*100)!RLUNo drug+Enzyme} Equation 2:
(§4) Percent Inhibition=100*(% Conversioneach data point/% ConversionEnzyme) Equation 3: […]

FMS kinase = target: T2, FMS kinase (Homo sapiens, UniProt P07333); assay: LanthaScreen Eu Kinase Binding Assay (ATP, fluorescent-PolyGT substrate); format: biochemical
T2 construct: purchased Invitrogen (Life Technologies)
T2 sequence (P07333 20-972): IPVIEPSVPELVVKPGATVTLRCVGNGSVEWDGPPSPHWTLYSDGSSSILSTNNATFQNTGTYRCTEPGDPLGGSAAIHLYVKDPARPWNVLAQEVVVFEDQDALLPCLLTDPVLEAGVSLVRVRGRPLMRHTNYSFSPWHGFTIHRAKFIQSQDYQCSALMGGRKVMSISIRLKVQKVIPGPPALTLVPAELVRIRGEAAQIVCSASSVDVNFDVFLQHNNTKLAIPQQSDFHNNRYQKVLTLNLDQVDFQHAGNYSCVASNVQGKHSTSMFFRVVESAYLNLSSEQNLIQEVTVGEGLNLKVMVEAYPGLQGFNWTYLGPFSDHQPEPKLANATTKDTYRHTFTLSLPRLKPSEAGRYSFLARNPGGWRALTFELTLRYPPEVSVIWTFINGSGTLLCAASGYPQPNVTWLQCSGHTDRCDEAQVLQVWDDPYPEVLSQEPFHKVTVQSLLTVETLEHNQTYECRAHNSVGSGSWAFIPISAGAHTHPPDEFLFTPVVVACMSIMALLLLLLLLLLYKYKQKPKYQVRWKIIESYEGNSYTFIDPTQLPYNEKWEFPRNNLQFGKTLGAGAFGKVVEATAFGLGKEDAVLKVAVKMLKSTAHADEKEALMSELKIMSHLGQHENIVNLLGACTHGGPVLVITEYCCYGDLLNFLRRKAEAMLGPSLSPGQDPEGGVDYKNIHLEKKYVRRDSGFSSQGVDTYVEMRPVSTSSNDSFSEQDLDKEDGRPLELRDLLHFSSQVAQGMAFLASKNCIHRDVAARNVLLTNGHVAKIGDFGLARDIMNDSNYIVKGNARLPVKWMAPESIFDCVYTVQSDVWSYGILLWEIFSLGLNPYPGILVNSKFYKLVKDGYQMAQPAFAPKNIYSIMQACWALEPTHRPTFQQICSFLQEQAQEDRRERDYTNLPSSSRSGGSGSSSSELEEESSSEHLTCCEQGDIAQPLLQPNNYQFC
Method: IC50 values of compounds against FMS kinase were determined by LanthaScreen™ Eu Kinase Binding Assay at Invitrogen (Life Technologies Grand Island, N.Y.) where total reaction volume was 10 μL in low-volume 384-well plates (#4511, Corning). Serially diluted compounds (3-fold) were incubated with kinase (1.25 nM) for 10 min, following which a mixture of ATP (10 μM) (#A1852, Sigma, St-Louis, Mo.) and fluorescent-PolyGT substrate (200 nM) (#PV3610, Invitrogen, Life Technologies Grand Island, N.Y.) was added and incubated in dark at room temperature for 1H. After 1H, 10 μL stop solution containing Terbium labeled antibody (4 nM) (#PV3529, Invitrogen, Life Technologies Grand Island, N.Y.) and EDTA (#E5134, Sigma, St-Louis, Mo.) (20 mM) in TR-FRET dilution buffer (#PV3574, Invitrogen, Life Technologies Grand Island, N.Y.) was added. Readings were taken in a Synergy Neo Plate reader (BioTek, Winooski) at single excitation of 340 nm and Dual emission at 495 nm and 520 nm respectively.
The following equations were used for LanthaScreen Eu Kinase Binding Assay Data Analysis. Percent inhibition (100-% activity) was fitted to the “four-parameter logistic model” in XLfit for determination of IC50 values.

PI3Kδ kinase = target: T3, PI3Kδ kinase (Homo sapiens, UniProt O00329); assay: PI3Kδ kinase assay (ADP-Glo, Reaction Biology); format: biochemical
T3 construct: purchased Reaction Biology Corporation (assay service)
T3 sequence (O00329 whole entry): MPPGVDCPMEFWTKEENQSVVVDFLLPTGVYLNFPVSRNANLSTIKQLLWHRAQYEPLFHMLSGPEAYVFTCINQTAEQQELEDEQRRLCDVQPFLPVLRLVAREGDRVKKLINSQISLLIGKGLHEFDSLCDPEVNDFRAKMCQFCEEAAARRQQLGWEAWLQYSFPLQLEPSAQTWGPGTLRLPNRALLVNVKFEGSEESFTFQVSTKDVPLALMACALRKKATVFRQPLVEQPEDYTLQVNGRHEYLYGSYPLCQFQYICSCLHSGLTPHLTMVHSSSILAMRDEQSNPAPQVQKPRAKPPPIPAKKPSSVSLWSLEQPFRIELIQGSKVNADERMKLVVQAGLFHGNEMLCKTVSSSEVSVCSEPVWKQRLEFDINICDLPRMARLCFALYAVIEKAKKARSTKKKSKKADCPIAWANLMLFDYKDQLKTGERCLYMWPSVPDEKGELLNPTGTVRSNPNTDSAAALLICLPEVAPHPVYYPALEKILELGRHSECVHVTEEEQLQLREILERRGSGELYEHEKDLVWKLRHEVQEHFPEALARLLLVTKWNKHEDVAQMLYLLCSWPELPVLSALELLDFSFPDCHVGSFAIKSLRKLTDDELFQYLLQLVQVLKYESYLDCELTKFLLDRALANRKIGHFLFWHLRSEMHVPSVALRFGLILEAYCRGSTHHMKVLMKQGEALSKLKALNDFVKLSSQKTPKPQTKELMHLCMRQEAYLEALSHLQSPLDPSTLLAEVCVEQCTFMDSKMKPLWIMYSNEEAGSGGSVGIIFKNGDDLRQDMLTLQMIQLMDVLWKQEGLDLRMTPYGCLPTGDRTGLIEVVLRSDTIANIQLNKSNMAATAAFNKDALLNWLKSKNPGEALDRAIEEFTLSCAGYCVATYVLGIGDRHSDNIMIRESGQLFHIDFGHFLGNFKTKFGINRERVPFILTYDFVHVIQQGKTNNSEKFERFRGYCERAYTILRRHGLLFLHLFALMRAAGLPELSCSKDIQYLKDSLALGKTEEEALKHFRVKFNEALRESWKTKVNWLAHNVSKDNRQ
T3 sequence (P27986 whole entry partner): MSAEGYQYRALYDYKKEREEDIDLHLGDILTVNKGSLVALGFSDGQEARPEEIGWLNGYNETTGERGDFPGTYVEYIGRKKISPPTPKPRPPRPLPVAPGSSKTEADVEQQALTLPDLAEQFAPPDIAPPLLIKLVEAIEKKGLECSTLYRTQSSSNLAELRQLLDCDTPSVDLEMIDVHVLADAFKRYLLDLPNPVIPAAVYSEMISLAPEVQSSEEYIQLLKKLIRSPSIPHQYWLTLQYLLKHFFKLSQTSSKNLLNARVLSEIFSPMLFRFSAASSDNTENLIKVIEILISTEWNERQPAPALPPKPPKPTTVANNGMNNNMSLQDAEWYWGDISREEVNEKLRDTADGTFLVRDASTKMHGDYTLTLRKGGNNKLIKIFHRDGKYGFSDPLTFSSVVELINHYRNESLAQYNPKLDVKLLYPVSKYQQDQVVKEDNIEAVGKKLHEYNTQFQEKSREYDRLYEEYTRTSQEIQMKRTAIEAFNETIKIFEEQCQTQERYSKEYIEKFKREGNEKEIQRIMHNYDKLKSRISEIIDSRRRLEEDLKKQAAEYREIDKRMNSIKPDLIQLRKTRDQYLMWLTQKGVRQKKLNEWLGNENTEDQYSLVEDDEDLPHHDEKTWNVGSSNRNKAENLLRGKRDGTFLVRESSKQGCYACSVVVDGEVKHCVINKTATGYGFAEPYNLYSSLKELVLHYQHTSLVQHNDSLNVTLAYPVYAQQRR
Method: IC50 values of compounds against the PI3Kδ kinase were determined by an assay performed by Reaction Biology Corporation (Malvern, Pa.). Briefly, this assay was conducted in buffer (Tris-HCl 40 mM (pH7.5), Orthovanadate 3 mM, MgCl2 20 mM, DTT 2 mM, CHAPS 0.05%, DMSO 1%). PI3Kδ kinase was added to the reaction solution and mixed gently. The test compounds in 100% DMSO (at specific solutions) were mixed with the kinase reaction mixture to achieve the final compounds at pre-defined concentrations (e.g., range −0.5 nM to 100 μM) by Acoustic technology (Echo550; nanoliter range). After incubating for 10 min at room temp, ATP was added into the reaction mixture to initiate the reaction followed by a 30-min incubation at 30° C. After quenching the reaction with ADP-Glo reagent, the plates were incubated for 40 min. The Detection Mixture was added, and the plate was incubated for an additional 30 min. At the end of incubation, luminescence was measured. For data analysis, the luminescence was converted into μM ADP production based on ADP standard curves. The nonlinear regression to obtain the standard curve and IC50 values was performed using GraphPad Prism (GraphPad Software, Inc., San Diego, Calif.).

CDK6 = target: T4, CDK6 (Homo sapiens, UniProt Q00534); assay: In vitro kinase inhibition IC50, luminescence (ADP Glo), retinoblastoma substrate; format: biochemical; details: read-out: CDK6/D1 IC50
T4 construct: purchased Invitrogen PR8422B
T4 sequence (Q00534 whole entry): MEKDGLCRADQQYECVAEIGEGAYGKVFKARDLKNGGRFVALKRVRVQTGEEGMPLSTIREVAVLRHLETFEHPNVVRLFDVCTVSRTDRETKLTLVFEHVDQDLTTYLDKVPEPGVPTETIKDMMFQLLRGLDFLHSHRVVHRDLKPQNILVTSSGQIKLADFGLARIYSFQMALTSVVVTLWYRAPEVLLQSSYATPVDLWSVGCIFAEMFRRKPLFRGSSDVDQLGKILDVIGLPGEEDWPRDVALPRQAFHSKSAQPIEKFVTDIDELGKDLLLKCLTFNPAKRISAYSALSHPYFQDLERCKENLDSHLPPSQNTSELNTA
T4 sequence (P24385 whole entry partner): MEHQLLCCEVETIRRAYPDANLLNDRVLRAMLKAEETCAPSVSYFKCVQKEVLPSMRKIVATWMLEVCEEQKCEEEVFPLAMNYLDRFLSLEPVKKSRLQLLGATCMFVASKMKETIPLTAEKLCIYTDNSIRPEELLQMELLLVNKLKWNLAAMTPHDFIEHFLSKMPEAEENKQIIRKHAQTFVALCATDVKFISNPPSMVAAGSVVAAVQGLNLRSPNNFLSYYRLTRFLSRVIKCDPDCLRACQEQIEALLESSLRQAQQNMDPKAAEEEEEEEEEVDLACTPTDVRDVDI
Method: as §1, §2, §3, §4

[1] = tested on: MCF-7 breast adenocarcinoma cells; assay: Cancer cell proliferation assay, single agent (cell viability); format: cell-based; details: Homo sapiens, MCF7, Table 4; Rb positive; treatment 144 Hr with medium change at 72 Hr; Cell Titer-Glo or resazurin
Method: (§5) The effects of test compounds were studied in three breast cancer cell lines of different subtype. The cancer cells (Table 3) were harvested during the logarithmic growth period and counted. Cell concentrations were adjusted to the appropriate number with respective medium and 90 μL cell suspensions were added to 96-well plates. After cells were seeded, the plates were shaken gently to distribute cells evenly and incubated at 37° C., 5% CO2 on day 1.
(§6) Cells were treated with test compounds at 7 to 9 concentrations within a desired concentration range (e.g. 1.1 nM-10 μM) on day 2 by series diluting the test compound stock solution (10 mM in DMSO) with culture medium. Treatment duration was 24 Hr for BT-549 cells and 144 Hr (with a medium change at 72 Hr) for MCF-7 and DU4475 cells. Cell viability was assessed by Cell Titer-Glo® as recommended by Promega (Cat. No.: G7572), or by resazurin assay (Sigma Aldrich, Cat. No.: R7017) post treatment.
(§7) Cell viability data were plotted using GraphPad Prism (GraphPad Software, Inc., San Diego, Calif.). In addition, a nonlinear regression model with a sigmoidal dose response and variable slope within GraphPad Prism was used to calculate the IC50 value of individual test compounds.

[2] = tested on: DU4475 breast carcinoma cells; assay: as above; format: cell-based; details: Homo sapiens, DU-4475; Table 4; Rb negative; treatment 144 Hr with medium change at 72 Hr; Cell Titer-Glo or resazurin
Method: as §5, §6, §7

T1 sequence (P11802 whole entry): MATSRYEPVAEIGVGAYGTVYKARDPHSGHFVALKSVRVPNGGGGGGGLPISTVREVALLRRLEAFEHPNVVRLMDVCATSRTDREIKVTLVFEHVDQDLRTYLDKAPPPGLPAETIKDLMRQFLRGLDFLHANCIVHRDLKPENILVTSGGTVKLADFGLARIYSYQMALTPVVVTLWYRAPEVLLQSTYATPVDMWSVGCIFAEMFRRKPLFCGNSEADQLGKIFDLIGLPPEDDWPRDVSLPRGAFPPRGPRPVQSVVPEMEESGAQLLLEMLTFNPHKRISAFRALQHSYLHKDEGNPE
T1 sequence (P24385 whole entry partner): as the sequence (P24385 whole entry partner) above

Row | IC50 (CDK4) | IC50 (FMS kinase) | IC50 (PI3Kδ kinase) | IC50 (CDK6) | IC50 [1] | IC50 [2] | SMILES
1 | > 200 nM | 4520 nM | > 30000 nM |  |  |  | CN1CCN(C(=O)Cn2cc(Nc3ncc4cc(C#N)c(=O)n(C5CCCC5)c4n3)cn2)CC1 [Compound 58]
2 |  | 180 nM | 129 nM |  |  |  | C[C@H]1CC[C@H](n2c(=O)c(C#N)cc3cnc(Nc4cccc(S(N)(=O)=O)c4)nc32)CC1 [Compound No. 2, 3-((6-cyano-8-((1r,4r)-4-methylcyclohexyl)-7-oxo-7,8-dihydropyrido[2,3-d]pyrimidin-2-yl)amino)benzenesulfonamide]
3 |  | 1 nM | 2730 nM |  |  |  | C[C@H]1CC[C@H](n2c(=O)c(C#N)cc3cnc(Nc4cccc(C(N)=O)c4)nc32)CC1 [Compound No. 4, 3-((6-cyano-8-((1r,4r)-4-methylcyclohexyl)-7-oxo-7,8-dihydropyrido[2,3-d]pyrimidin-2-yl)amino)benzamide]
4 |  | < 1 nM | 955 nM |  |  |  | N#Cc1cc2cnc(Nc3ccc4c(c3)NC(=O)CC4)nc2n(C2CCCC2)c1=O [Compound No. 9, 8-cyclopentyl-7-oxo-2-((2-oxo-1,2,3,4-tetrahydroquinolin-7-yl)amino)-7,8-dihydropyrido[2,3-d]pyrimidine-6-carbonitrile]
5 |  | 2.4 nM | 1030 nM |  |  |  | CN(C)CCNC(=O)c1cccc(Nc2ncc3cc(C#N)c(=O)n(C4CCCC4)c3n2)c1 [Compound No. 11, 3-((6-cyano-8-cyclopentyl-7-oxo-7,8-dihydropyrido[2,3-d]pyrimidin-2-yl)amino)-N-(2-(dimethylamino)ethyl)benzamide]
6 |  | 0.4 nM | 1330 nM |  | 2500 nM |  | N#Cc1cc2cnc(Nc3ccc(N4CCNCC4=O)cc3)nc2n(C2CCCC2)c1=O [Compound No. 12, 8-cyclopentyl-7-oxo-2-((4-(2-oxopiperazin-1-yl)phenyl)amino)-7,8-dihydropyrido[2,3-d]pyrimidine-6-carbonitrile]

Continued, molecule first:

Row | SMILES | IC50 (CDK4) | IC50 (FMS kinase) | IC50 (PI3Kδ kinase) | IC50 (CDK6) | IC50 [1] | IC50 [2]
7 | CN1CCN(CCCn2cc(Nc3ncc4cc(C#N)c(=O)n(C5CCCC5)c4n3)cn2)CC1 [Compound 56] | > 200 nM | > 5000 nM | > 30000 nM |  |  | 
8 | CN1CCN(c2ccc(Nc3ncc4cc(C#N)c(=O)n([C@H]5CC[C@H](C)CC5)c4n3)cc2)CC1 [Compound No. 1, 8-((1r,4r)-4-methylcyclohexyl)-2-((4-(4-methylpiperazin-1-yl)phenyl)amino)-7-oxo-7,8-dihydropyrido[2,3-d]pyrimidine-6-carbonitrile] | 2 nM | < 300 nM | 389 nM | 1 nM | 8060 nM | 
9 | N#Cc1cc2cnc(Nc3cccc(S(N)(=O)=O)c3)nc2n(C2CCCC2)c1=O [Compound No. 3, 3-((6-cyano-8-cyclopentyl-7-oxo-7,8-dihydropyrido[2,3-d]pyrimidin-2-yl)amino)benzenesulfonamide] | 12 nM | 35 nM | 130 nM | 14 nM |  | 
10 | N#Cc1cc2cnc(Nc3cccc(C(N)=O)c3)nc2n(C2CCCC2)c1=O [Compound No. 5, 3-((6-cyano-8-cyclopentyl-7-oxo-7,8-dihydropyrido[2,3-d]pyrimidin-2-yl)amino)benzamide] | 212 nM | 1 nM | 444 nM | 48 nM |  | 
11 | N#Cc1cc2cnc(Nc3ccc(S(=O)(=O)N4CCC(O)CC4)cc3)nc2n(C2CCCC2)c1=O [Compound No. 14, 8-cyclopentyl-2-((4-((4-hydroxypiperidin-1-yl)sulfonyl)phenyl)amino)-7-oxo-7,8-dihydropyrido[2,3-d]pyrimidine-6-carbonitrile] |  | 2.5 nM | 976 nM |  |  | 
12 | CN1CCN(S(=O)(=O)c2ccc(Nc3ncc4cc(C#N)c(=O)n(C5CCCC5)c4n3)cc2)CC1 [Compound No. 15, 8-cyclopentyl-2-((4-((4-methylpiperazin-1-yl)sulfonyl)phenyl)amino)-7-oxo-7,8-dihydropyrido[2,3-d]pyrimidine-6-carbonitrile] |  | 5.5 nM | 3730 nM |  |  | 
13 | CCC(CC)n1c(=O)c(C#N)cc2cnc(Nc3ccc4c(c3)CCNC4)nc21 [Compound No. 86, 7-oxo-8-(pentan-3-yl)-2-((1,2,3,4-tetrahydroisoquinolin-6-yl)amino)-7,8-dihydropyrido[2,3-d]pyrimidine-6-carbonitrile] | 177 nM |  | 840 nM | 25 nM | 532 nM | 1400 nM
14 | CN1CCN(c2ccc(Nc3ccc4cc(C#N)c(=O)n(C5CCCC5)c4n3)cc2)CC1 [Compound No. 96, 1-cyclopentyl-7-((4-(4-methylpiperazin-1-yl)phenyl)amino)-2-oxo-1,2-dihydro-1,8-naphthyridine-3-carbonitrile] | > 200 nM |  | > 50000 nM | 154 nM | 2440 nM | 1700 nM
15 | N#Cc1cc2ccc(Nc3ccc4c(c3)CCNC4)nc2n(C2CCCC2)c1=O [Compound No. 97, 1-cyclopentyl-2-oxo-7-((1,2,3,4-tetrahydroisoquinolin-6-yl)amino)-1,2-dihydro-1,8-naphthyridine-3-carbonitrile] | > 200 nM |  | > 50000 nM | > 200 nM | 1610 nM | 1270 nM
16 | CN1CCC(c2ccc(Nc3ccc4cc(C#N)c(=O)n(C5CCCC5)c4n3)cc2)CC1 [Compound No. 98, 1-cyclopentyl-7-((4-(1-methylpiperidin-4-yl)phenyl)amino)-2-oxo-1,2-dihydro-1,8-naphthyridine-3-carbonitrile] | > 200 nM |  | > 50000 nM | > 200 nM | 1720 nM | 1430 nM
